The values below come from patent US8729048B2, “Methods and materials for assessing responsiveness to PARP inhibitors and platinating agents” (Mayo Foundation for Medical Education and Research, priority 2011, dated 2014).

Holding throughout (assay type): cell-based
In experiment [1] the test system is BRCA2-positive PEO4 cells. The experiment in a line: Clonogenic assay, PEO4. The following applies: 72 hours. The procedure:
FIG. 5. NHEJ is a major contributor to PARP inhibitor effects in BRCA2-deficient cells. (A) Western blots showing knockdown of Ku80 in PEO1 and PEO4 cells. (B) Clonogenic survival of PEO1 and PEO4 cells from (A), which were treated with the indicated ABT-888 concentration for 72 hours, washed, and allowed to form colonies. (C) Western blots following treatment with siRNA targeting luciferase (control), Ku80, PARP1, or both Ku80 and PARP1. (D) Clonogenic viability of PEO 1 and PEO4 cells from (C). Following knockdown, cells were plated onto triplicate plates and allowed to form colonies. (E) Clonogenic survival of PEO1 cells following Artemis knockdown. After treatment with the indicated siRNA, plates were treated with indicated concentration of ABT-888 for 72 hours, washed, and allowed to form colonies. Inset, Western blots showing knockdown using luciferase (control) or Artemis siRNAs in PEO1 cells. (F) Clonogenic survival of PEO1 and PEO4 cells treated for 72 hours with ABT-888 in combination with diluent or 500 nM DNA-PKi. All results are reported as means of triplicate plates±SEM, and are representative of 3 independent experiments.
Colony formation assays were performed on siRNA-transfected PEO1 and PEO4 cells 48 hours after the second transfection. Cells were trypsinized and plated at 750 cells/plate in triplicate 60-mm dishes containing medium A, allowed to grow 10-14 days, and stained with Coomassie Brilliant Blue. Colonies containing ≧50 cells were scored manually. To assess methyl methanesulfonate (MMS) sensitivity, PEO1 or PEO4 cells were incubated for 48 hours after the second siRNA treatment, plated onto 60-mm dishes, allowed to adhere for 4 hours, exposed to the indicated concentration of MMS (Sigma-Aldrich) for 1 hour, washed with sterile RPMI 1640, and allowed to grow into colonies in medium A. For drug treatment, cells (without siRNA) were allowed to adhere for 4-6 hours, then treated with the indicated concentrations of ABT-888 and/or AZ12594248 for 72 hours. […]

Experiment [2] deals with phospho-H2AX and phospho-DNA-PKcs foci in HCC1937 cells. The experiment can be described thus: Immunofluorescence / confocal foci in HCC1937 cells. The procedure: FIG. 15. Upon PARP inhibition, HCC1937 cells form phospho-H2AX foci that colocalize to regions of activated DNA-PK. (A) Quantitation of cells positive for phospho-H2AX foci in HCC1937 and HCC1937/BRCA1 cells, following treatment with 0.2% DMSO, 250 nM DNA-PKi, 20 μM ABT-888 (ABT), ABT-888 and DNA-PKi, 50 μM etoposide (Etop), or 5 Gy ionizing radiation (IR). Cells were exposed to ABT-888 and/or DNA-PKi for 72 hours, etoposide for 1 hour, or allowed to recover 1 hour post-IR. Results are reported as mean±SEM of 3 independent experiments. (B) Confocal microscopy after staining with antibodies to phospho-H2AX (Ser^139) and phospho-DNA PKcs (Thr^2609) as in FIG. 2D. HCC1937 cells are shown on the left, and reconstituted HCC1937/BRCA1 cells on the right.
Immunofluorescence studies were performed as described elsewhere (Segovis et al., J. Immunol., 182:6933-6942 (2009)) with several modifications. […]
Coverslips were then washed three times with PBS and incubated for 1 h with Alexa Fluor 488- and/or 568-conjugated secondary antibody (Invitrogen) diluted 1:1000. […] Phospho-H2AX positive cells (defined as having >10 foci/cell) were counted on a Zeiss Axioplan microscope. […] Quantitation and image processing were performed using the Zeiss Zen software package and Adobe Photoshop CS3.

Experiment [3] relates to HPRT locus in BRCA2-mutant CAPAN1 cells. The experiment can be described thus: HPRT mutagenesis assay. The following applies: 250 nM DNA-PKi, 72 hours. Here is the method: FIG. 4. PARP inhibitor-induced chromosomal derangement and genomic instability is dependent on DNA-PK activity. (A) Representative images of metaphase spreads from cells treated with diluent (0.2% DMSO), 500 nM DNA-PKi, 2.5 μM ABT-888, or both ABT-888 and DNA-PKi for 72 hours. Chromosomal breaks are marked with arrowheads and radial structures are marked with asterisks. (B) Quantitation of data from (A) showing average radial chromosomes per cell (n=100 for each data point pooled from two separate experiments, error bars represent SEM). † indicate values that are zero. (C) Calculated mutagenesis frequency in BRCA2-mutant CAPAN1 cells after control treatment or exposure to ABT-888 with or without 250 nM DNA-PKi. Each bar represents the mean±SEM of 5-8 plates.
HPRT mutagenesis was performed as described elsewhere (Hashimoto et al., Clin. Cancer Res., 1:369-376 (1995)). […] Each sample group was trypsinized, replated at 10^6 cells/100-mm dish in medium E supplemented with 15 μM 6-TG, cultured until colonies were visible (14-21 days), and analyzed manually for colony formation. […] Mutagenesis frequencies were calculated by dividing the number of colonies on 6-TG-treated plates by the total number of possible colonies (10^6 cells×plating efficiency).

`C[C@]1(c2nc3c(C(N)=O)cccc3[nH]2)CCCN1` [ABT-888]: in experiment [1], the clonogenic survival result is reported as “resistant to the effects of ABT-888”. Also, the “clonogenic survival with ABT-888 after Ku80 knockdown” value in experiment [1] (Ku80 siRNA) is reported as “unaffected by Ku80 siRNA”.

Turning to `CCN1CCN(CC(=O)Nc2ccc(-c3cccc4c(=O)cc(N5CCOCC5)oc34)c3sc4ccccc4c23)CC1` [AZ 12594248], the “effect on ABT-888 induced colocalization of phospho-Thr2609-DNA-PK and phospho-Ser139-H2AX in foci” value in experiment [2] is reported as “inhibited ABT-888 induced colocalization”. In experiment [2] (250 nM DNA-PKi with 20 μM ABT-888, 72 hours), the “effect on formation of H2AX foci” value was “diminished formation of H2AX foci”. For the same compound, in experiment [3], the “effect of co-administration on PARP inhibitor-induced HPRT mutation frequency” value is listed as “markedly reduced the mutation frequency”.
